Data from PubChem BioAssay (NCI).
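Grown in 96-well plates, cells were treated for 48 hours with each compound at five concentrations. Insufficient inhibition: endpoint recorded as highest concentration tested. Definition used: TGI = concentration required for complete inhibition of growth.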

Key:
Assay in all cases: NCI tumour cell line growth inhibition, 48 h
A549 NSCLC = test system: A549 NSCLC
MCF7 breast = test system: MCF7 breast
SW-620 colon = test system: SW-620 colon
UACC-62 melanoma = test system: UACC-62 melanoma
HCC-2998 colon = test system: HCC-2998 colon
HOP-92 NSCLC = test system: HOP-92 NSCLC
NCI-H522 lung = test system: NCI-H522 lung
U251 CNS = test system: U251 CNS
OVCAR-3 ovarian = test system: OVCAR-3 ovarian
PC-3 prostate = test system: PC-3 prostate
DU-145 prostate = test system: DU-145 prostate
LOX IMVI melanoma = test system: LOX IMVI melanoma
SK-MEL-5 melanoma = test system: SK-MEL-5 melanoma
OVCAR-4 ovarian = test system: OVCAR-4 ovarian
IGROV1 ovarian = test system: IGROV1 ovarian
NCI-H226 lung = test system: NCI-H226 lung
UACC-257 melanoma = test system: UACC-257 melanoma
HCT-116 colon = test system: HCT-116 colon
HOP-62 NSCLC = test system: HOP-62 NSCLC
OVCAR-5 ovarian = test system: OVCAR-5 ovarian
NCI-H23 lung = test system: NCI-H23 lung
SK-MEL-2 melanoma = test system: SK-MEL-2 melanoma
HCT-15 colon = test system: HCT-15 colon
SF-268 CNS = test system: SF-268 CNS
COLO 205 colon = test system: COLO 205 colon
ACHN renal = test system: ACHN renal
SNB-75 CNS = test system: SNB-75 CNS
NCI/ADR-RES ovarian = test system: NCI/ADR-RES ovarian
CAKI-1 renal = test system: CAKI-1 renal
HT29 colon = test system: HT29 colon
SK-OV-3 ovarian = test system: SK-OV-3 ovarian
SR leukemia = test system: SR leukemia
CCRF-CEM leukemia = test system: CCRF-CEM leukemia
KM12 colon = test system: KM12 colon
HL-60(TB) leukemia = test system: HL-60(TB) leukemia
K-562 leukemia = test system: K-562 leukemia
SN12C renal = test system: SN12C renal
T-47D breast = test system: T-47D breast
MOLT-4 leukemia = test system: MOLT-4 leukemia
SF-295 CNS = test system: SF-295 CNS
EKVX NSCLC = test system: EKVX NSCLC
MDA-N = test system: MDA-N
MDA-MB-231 breast = test system: MDA-MB-231 breast
SK-MEL-28 melanoma = test system: SK-MEL-28 melanoma
786-0 renal = test system: 786-0 renal
NCI-H460 lung = test system: NCI-H460 lung
TK-10 renal = test system: TK-10 renal
OVCAR-8 ovarian = test system: OVCAR-8 ovarian
UO-31 renal = test system: UO-31 renal
M14 melanoma = test system: M14 melanoma
SNB-19 CNS = test system: SNB-19 CNS
A498 renal = test system: A498 renal
MDA-MB-435 = test system: MDA-MB-435
RPMI-8226 leukemia = test system: RPMI-8226 leukemia
BT-549 breast = test system: BT-549 breast
SF-539 CNS = test system: SF-539 CNS
MALME-3M melanoma = test system: MALME-3M melanoma

Q: `CN1C(=O)C2(C=CC(O)CC2)c2ccccc21` (stereo unspecified) was tested. Which TGI (A549 NSCLC) did it give?
A: Its TGI is > 100 µM.

Q: And the TGI (MCF7 breast)?
A: Its TGI is > 100 µM.

Q: What about the TGI (SW-620 colon) of the same compound?
A: The TGI was > 100 µM.

Q: What about the TGI (UACC-62 melanoma) of the same compound?
A: Its TGI is > 100 µM.

Q: And the TGI (HCC-2998 colon)?
A: Its TGI is > 100 µM.

Q: And the TGI (HOP-92 NSCLC)?
A: Its TGI is > 100 µM.

Q: What about the TGI (NCI-H522 lung) of the same compound?
A: Its TGI is > 100 µM.

Q: What about the TGI (U251 CNS) of the same compound?
A: The TGI was > 100 µM.

Q: What about the TGI (OVCAR-3 ovarian) of the same compound?
A: The TGI was > 100 µM.

Q: And the TGI (PC-3 prostate)?
A: Its TGI is > 100 µM.

Q: What about the TGI (DU-145 prostate) of the same compound?
A: Its TGI is > 100 µM.

Q: What about the TGI (LOX IMVI melanoma) of the same compound?
A: The TGI was > 100 µM.

Q: And the TGI (SK-MEL-5 melanoma)?
A: Its TGI is > 100 µM.

Q: And the TGI (OVCAR-4 ovarian)?
A: Its TGI is > 100 µM.

Q: What about the TGI (IGROV1 ovarian) of the same compound?
A: Its TGI is > 100 µM.

Q: What about the TGI (NCI-H226 lung) of the same compound?
A: Its TGI is > 100 µM.

Q: And the TGI (UACC-257 melanoma)?
A: Its TGI is > 100 µM.

Q: And the TGI (HCT-116 colon)?
A: The TGI was > 100 µM.

Q: What about the TGI (HOP-62 NSCLC) of the same compound?
A: The TGI was > 100 µM.

Q: What about the TGI (OVCAR-5 ovarian) of the same compound?
A: Its TGI is > 100 µM.

Q: What about the TGI (NCI-H23 lung) of the same compound?
A: Its TGI is > 100 µM.

Q: And the TGI (SK-MEL-2 melanoma)?
A: The TGI was > 100 µM.

Q: What about the TGI (HCT-15 colon) of the same compound?
A: Its TGI is > 100 µM.

Q: And the TGI (SF-268 CNS)?
A: The TGI was > 100 µM.

Q: What about the TGI (COLO 205 colon) of the same compound?
A: Its TGI is > 100 µM.

Q: What about the TGI (ACHN renal) of the same compound?
A: The TGI was > 100 µM.

Q: What about the TGI (SNB-75 CNS) of the same compound?
A: Its TGI is > 100 µM.

Q: What about the TGI (NCI/ADR-RES ovarian) of the same compound?
A: Its TGI is > 100 µM.

Q: And the TGI (CAKI-1 renal)?
A: The TGI was > 100 µM.

Q: And the TGI (HT29 colon)?
A: Its TGI is > 100 µM.

Q: And the TGI (SK-OV-3 ovarian)?
A: The TGI was > 100 µM.

Q: What about the TGI (SR leukemia) of the same compound?
A: Its TGI is > 100 µM.

Q: And the TGI (CCRF-CEM leukemia)?
A: Its TGI is > 100 µM.

Q: What about the TGI (KM12 colon) of the same compound?
A: Its TGI is > 100 µM.

Q: What about the TGI (HL-60(TB) leukemia) of the same compound?
A: The TGI was > 100 µM.

Q: What about the TGI (K-562 leukemia) of the same compound?
A: Its TGI is > 100 µM.

Q: And the TGI (SN12C renal)?
A: The TGI was > 100 µM.

Q: And the TGI (T-47D breast)?
A: The TGI was > 100 µM.

Q: And the TGI (MOLT-4 leukemia)?
A: Its TGI is > 100 µM.

Q: And the TGI (SF-295 CNS)?
A: The TGI was > 100 µM.

Q: And the TGI (EKVX NSCLC)?
A: The TGI was > 100 µM.

Q: And the TGI (MDA-N)?
A: Its TGI is > 100 µM.

Q: And the TGI (MDA-MB-231 breast)?
A: The TGI was > 100 µM.

Q: What about the TGI (SK-MEL-28 melanoma) of the same compound?
A: The TGI was > 100 µM.

Q: And the TGI (786-0 renal)?
A: Its TGI is > 100 µM.

Q: What about the TGI (NCI-H460 lung) of the same compound?
A: Its TGI is > 100 µM.

Q: What about the TGI (TK-10 renal) of the same compound?
A: The TGI was > 100 µM.

Q: And the TGI (OVCAR-8 ovarian)?
A: Its TGI is > 100 µM.

Q: What about the TGI (UO-31 renal) of the same compound?
A: The TGI was > 100 µM.

Q: What about the TGI (M14 melanoma) of the same compound?
A: Its TGI is > 100 µM.

Q: And the TGI (SNB-19 CNS)?
A: Its TGI is > 100 µM.

Q: What about the TGI (A498 renal) of the same compound?
A: The TGI was > 100 µM.

Q: What about the TGI (MDA-MB-435) of the same compound?
A: The TGI was > 100 µM.

Q: And the TGI (RPMI-8226 leukemia)?
A: Its TGI is > 100 µM.

Q: For `O=C(Nc1ccc2[nH]c(C(=O)N3CC(CCl)c4c3cc([N+](=O)[O-])c3ccccc43)cc2c1)Nc1ccc2[nH]c(C(=O)N3CC(CCl)c4c3cc([N+](=O)[O-])c3ccccc43)cc2c1` (stereo unspecified), which TGI (A549 NSCLC) is on record?
A: The TGI was > 100 µM.

Q: And the TGI (MCF7 breast)?
A: Its TGI is > 100 µM.

Q: And the TGI (UACC-62 melanoma)?
A: Its TGI is > 100 µM.

Q: And the TGI (HOP-92 NSCLC)?
A: The TGI was > 100 µM.

Q: And the TGI (NCI-H522 lung)?
A: The TGI was > 100 µM.

Q: And the TGI (U251 CNS)?
A: The TGI was > 100 µM.

Q: And the TGI (OVCAR-3 ovarian)?
A: Its TGI is > 100 µM.

Q: And the TGI (PC-3 prostate)?
A: Its TGI is > 100 µM.

Q: And the TGI (DU-145 prostate)?
A: Its TGI is > 100 µM.

Q: What about the TGI (SK-MEL-5 melanoma) of the same compound?
A: The TGI was > 100 µM.

Q: And the TGI (OVCAR-4 ovarian)?
A: The TGI was > 100 µM.

Q: What about the TGI (NCI-H226 lung) of the same compound?
A: Its TGI is > 100 µM.

Q: What about the TGI (UACC-257 melanoma) of the same compound?
A: Its TGI is > 100 µM.

Q: And the TGI (BT-549 breast)?
A: Its TGI is > 100 µM.

Q: And the TGI (HCT-116 colon)?
A: Its TGI is > 100 µM.

Q: And the TGI (HOP-62 NSCLC)?
A: Its TGI is > 100 µM.

Q: And the TGI (OVCAR-5 ovarian)?
A: The TGI was > 100 µM.

Q: What about the TGI (NCI-H23 lung) of the same compound?
A: The TGI was > 100 µM.

Q: And the TGI (SK-MEL-2 melanoma)?
A: Its TGI is > 100 µM.

Q: And the TGI (HCT-15 colon)?
A: Its TGI is > 100 µM.

Q: And the TGI (SF-268 CNS)?
A: The TGI was > 100 µM.

Q: What about the TGI (COLO 205 colon) of the same compound?
A: Its TGI is > 100 µM.

Q: What about the TGI (ACHN renal) of the same compound?
A: Its TGI is > 100 µM.

Q: And the TGI (SNB-75 CNS)?
A: The TGI was > 100 µM.

Q: And the TGI (NCI/ADR-RES ovarian)?
A: The TGI was > 100 µM.

Q: What about the TGI (CAKI-1 renal) of the same compound?
A: The TGI was > 100 µM.

Q: And the TGI (SK-OV-3 ovarian)?
A: Its TGI is > 100 µM.

Q: And the TGI (CCRF-CEM leukemia)?
A: The TGI was 36.9 µM.

Q: What about the TGI (SF-539 CNS) of the same compound?
A: The TGI was > 100 µM.

Q: What about the TGI (KM12 colon) of the same compound?
A: The TGI was > 100 µM.

Q: And the TGI (SN12C renal)?
A: The TGI was > 100 µM.

Q: What about the TGI (T-47D breast) of the same compound?
A: The TGI was > 100 µM.

Q: And the TGI (SF-295 CNS)?
A: Its TGI is > 100 µM.

Q: And the TGI (EKVX NSCLC)?
A: Its TGI is > 100 µM.

Q: And the TGI (MDA-N)?
A: Its TGI is > 100 µM.

Q: And the TGI (MDA-MB-231 breast)?
A: Its TGI is > 100 µM.

Q: And the TGI (SK-MEL-28 melanoma)?
A: Its TGI is > 100 µM.

Q: And the TGI (MALME-3M melanoma)?
A: The TGI was > 100 µM.

Q: What about the TGI (786-0 renal) of the same compound?
A: Its TGI is > 100 µM.

Q: And the TGI (NCI-H460 lung)?
A: The TGI was > 100 µM.

Q: And the TGI (TK-10 renal)?
A: Its TGI is > 100 µM.

Q: What about the TGI (UO-31 renal) of the same compound?
A: Its TGI is 41.1 µM.

Q: And the TGI (M14 melanoma)?
A: The TGI was > 100 µM.

Q: What about the TGI (SNB-19 CNS) of the same compound?
A: Its TGI is > 100 µM.

Q: And the TGI (A498 renal)?
A: Its TGI is > 100 µM.

Q: What about the TGI (MDA-MB-435) of the same compound?
A: Its TGI is > 100 µM.

Q: And the TGI (RPMI-8226 leukemia)?
A: The TGI was > 100 µM.
